Counter-ions that a name gives are not always drawn. Like-named read-outs stand apart in the source and are kept apart here.
Assay: Multi-component pharmacokinetics in rat plasma after oral administration of RB, RPA or RB-RPA extracts (UPLC-HRMS, non-compartmental analysis)
Format: in vivo, Sprague-Dawley rats
Conditions: for AUC0-t / AUC0-∞ / Cmax / t1/2 / tmax / AUC(0-inf) / half-life / Cmax, second value / tmax, second value: rat plasma, n = 7; for AUC0-t / AUC0-∞ / Cmax / t1/2 / tmax / AUC(0-inf) / half-life: mean ± SD; for change of AUC0-∞ after combination: oral RB-RPA group vs single herbal group (RB or RPA)
Procedure: (Beijing, China, No. SCXK2018-0011). […] All rats were free to access the water and food until 12 h before the experiment. The animal study was reviewed and approved by the Experimental Animal Ethical Committee of Modern Research Center for Traditional Chinese Medicine, Shanxi University (animal ethic approval number: SXULL2018018), and all experimental procedures were carried out in accordance with the NIH Guide for the Care and Use of Laboratory Animals. After one week of adaptation, twenty-one rats were divided into three groups randomly, with seven rats in each group: 1) RPA group, were oral administration of Radix Paeoniae Alba extract (45 g-herb/kg); 2) RB group, were oral administration of Radix Bupleuri extract (45 g-herb/kg); 3) RB-RPA group, were oral administration of powder mixture of Radix Bupleuri and Radix Paeoniae Alba extracts (containing 45 g-herb/kg Radix Bupleuri and 45 g-herb/kg Radix Paeoniae Alba). […] Each group received intragastric administration with a volume of 10 ml/kg (rat body weight). […] All rats were free to access the water during the experiment. The blood samples at each time point were collected from seven rats. The blood samples were centrifuged at 4,000 rpm for 10 min and frozen at -80°C until analysis. Using a Thermo-Fisher Dionex UltiMate 3000 UHPLC system coupled with a Q Exactive Orbitrap-MS (Thermo-Fisher, United States) and Xcalibur workstation (Thermo-Fisher Scientific Inc.,Waltham, MA, United States) to acquire UPLC-HRMS raw data. Chromatographic separation of herb extracts and plasma samples was performed on an Acquity UPLC HSS T3 column (2.1 mm × 100 mm, 1.8 μm) maintained at 37°C. The flow rate was 0.2 ml/min and the injection volume was 5 μL. […] Mass spectrometry detection conditions were set as follows: the MS data were acquired under positive and negative ionization modes via heated electrospray ionization (HESI) source. […] The Q Exactive Orbitrap-MS has a fast positive and negative ion switching function, which could switch between positive-negative ion modes during the analysis of the same sample. So, we applied the method of switching ion modes in the detection process to quantify all analytes better. […] UPLC/MS/MS calibration and quantitation data were processed with Xcalibur workstation (Thermo-Fisher Scientific Inc., Waltham, MA, United States). For the eight components with standard reference, calculating their concentrations from the standard curves. For the other 30 components without standard reference, their concentrations were analyzed following the regression equations of homologous compounds ([Qiao et al., 2012]): paeoniflorin for P1 and M1 to M3; methylgallate for M4 to M10; saikosaponin […] and […]; saikosaponin […]; saikosaponin […]; saikosaponin B2 for P11 and M25 to […].

[1] = oral RB single extract 45 g-herb/kg
[2] = oral RB-RPA mixed extracts (45 g-herb/kg RB + 45 g-herb/kg RPA)
[3] = oral administration of mixed extracts RB-RPA
[4] = oral administration of single extract RPA
[5] = male, Sprague-Dawley, rat, plasma, po, 45 g/kg, oral administration of mixed extracts RB-RPA
[6] = male, Sprague-Dawley, rat, plasma, po, 45 g/kg, oral administration of mixed extracts RB-RPA, read-out: AUC0-t
[7] = male, Sprague-Dawley, rat, plasma, po, 45 g/kg, oral administration of mixed extracts RB-RPA, read-out: Cmax
[8] = male, Sprague-Dawley, rat, plasma, po, 45 g/kg, oral administration of mixed extracts RB-RPA, read-out: tmax
[9] = male, Sprague-Dawley, rat, plasma, po, 45 g/kg, oral administration of single extract RPA
[10] = male, Sprague-Dawley, rat, plasma, po, 45 g/kg, oral administration of single extract RPA, read-out: AUC0-t
[11] = male, Sprague-Dawley, rat, plasma, po, 45 g/kg, oral administration of single extract RPA, read-out: Cmax

AUC0-t [1] [ng·h/mL] | AUC0-∞ [1] [ng·h/mL] | Cmax [1] [ng/mL] | t1/2 [1] [h] | tmax [1] [h] | AUC0-t [2] [ng·h/mL] | AUC0-∞ [2] [ng·h/mL] | Cmax [2] [ng/mL] | t1/2 [2] [h] | tmax [2] [h] | AUC0-t [3] [ng·h/mL] | AUC0-∞ [3] [ng·h/mL] | Cmax [3] [ng/mL] | t1/2 [3] [h] | tmax [3] [h] | AUC0-t [4] [ng·h/mL] | AUC0-∞ [4] [ng·h/mL] | Cmax [4] [ng/mL] | t1/2 [4] [h] | tmax [4] [h] | SMILES | further results
51.16 ± 11.83 | 57.19 ± 10.74 | 29.39 ± 11.24 | 3.50 ± 0.74 | 0.46 ± 0.19 | 62.08 ± 16.91 | 67.17 ± 16.28 | 27.55 ± 9.89 | 4.38 ± 1.27 | 0.54 ± 0.19 |  |  |  |  |  |  |  |  |  |  | CC(=O)OC[C@H]1O[C@@H](O[C@H]2[C@@H](O)[C@@H](C)O[C@@H](O[C@H]3CC[C@@]4(C)[C@@H](CC[C@]5(C)[C@@H]4C=CC46OCC7(CCC(C)(C)C[C@H]74)[C@@H](O)C[C@]65C)[C@]3(C)CO)[C@@H]2O)[C@H](O)[C@@H](O)[C@@H]1O (stereo partly drawn) [Acetyl-saikosaponin A] | 
 |  |  |  |  |  |  | 365.94 ± 41.75 |  |  | 1834.06 ± 191.89 | 1849.80 ± 396.92 | 365.94 ± 41.75 | 3.46 ± 0.56 | 0.71 ± 0.25 | 1202.69 ± 302.31 | 1210.33 ± 303.04 | 271.50 ± 63.29 | 3.19 ± 0.58 | 1.25 ± 0.89 | C[C@]12C[C@@H](O)[C@@H]3C[C@@]1(O[C@@H]1O[C@H](CO)[C@@H](O)[C@H](O)[C@H]1O)[C@@]3(COC(=O)c1ccccc1)C(=O)O2 [Albiflorin] | Cmax (oral RPA single extract 45 g-herb/kg): 271.50 ± 63.29 ng/mL; change of AUC0-∞ after combination (rat): significantly increased
 |  |  |  |  |  |  |  |  |  |  |  |  |  |  |  |  |  | 2.71 ± 0.72 |  | C[C@@]12C[C@@]3(O)O[C@@H](O1)[C@]1(COC(=O)c4ccccc4)[C@H]3C[C@@]12O[C@@H]1O[C@H](CO)[C@@H](O)[C@H](O)[C@H]1O [Paeoniflorin] | Cmax (male, Sprague-Dawley, rat, plasma, po, 45 g-herb/kg, oral RPA single extract 45 g-herb/kg, read-out: Cmax): 1780 ± 513 ng/mL; AUC(0-inf) [5]: 7170 ± 1140 ng·h/mL; half-life [5]: 1.96 ± 0.37 h; AUC0-t [6]: 7170 ± 1140 ng·h/mL; Cmax [7]: 2930 ± 386 ng/mL; tmax [8]: 0.33 ± 0.13 h; AUC(0-inf) [9]: 4260 ± 873 ng·h/mL; AUC0-t [10]: 4260 ± 869 ng·h/mL; Cmax [11]: 1780 ± 513 ng/mL; Cmax (male, Sprague-Dawley, rat, plasma, po, oral RB-RPA mixed extracts (45 g-herb/kg RB + 45 g-herb/kg RPA), read-out: Cmax): 2930 ± 386 ng/mL; change of AUC0-∞ after combination (rat): significantly increased
27.23 ± 10.38 | 31.50 ± 8.81 | 7.47 ± 3.88 | 3.38 ± 1.75 | 0.83 ± 0.52 | 32.79 ± 15.58 | 34.59 ± 14.83 | 8.53 ± 4.68 | 2.98 ± 1.07 | 0.71 ± 0.40 |  |  |  |  |  |  |  |  |  |  | C[C@H]1O[C@@H](O[C@H]2CC[C@@]3(C)[C@@H](CC[C@]4(C)[C@@H]3C=CC3=C5CC(C)(C)CC[C@]5(CO)[C@H](O)C[C@]34C)[C@]2(C)CO)[C@H](O)[C@@H](O)[C@H]1O [Prosaikogenin D] | Cmax, second value [1]: 6.32 ± 3.38 ng/mL; tmax, second value [1]: 1.75 ± 1.02 h; Cmax, second value (oral RB-RPA mixed extracts): 8.42 ± 4.54 ng/mL; tmax, second value (oral RB-RPA mixed extracts): 1.86 ± 0.92 h
54.21 ± 25.01 | 57.97 ± 25.49 | 14.68 ± 6.91 | 2.91 ± 0.84 | 1.54 ± 0.78 | 71.62 ± 34.91 | 77.58 ± 36.46 | 18.36 ± 8.50 | 3.46 ± 0.55 | 1.62 ± 0.74 |  |  |  |  |  |  |  |  |  |  | C[C@H]1O[C@@H](O[C@H]2CC[C@@]3(C)[C@@H](CC[C@]4(C)[C@@H]3C=C[C@]35OC[C@@]6(CCC(C)(C)C[C@H]63)[C@@H](O)C[C@]54C)[C@]2(C)CO)[C@H](O)[C@@H](O)[C@H]1O [Prosaikogenin F] | 
10.10 ± 4.96 | 11.33 ± 5.65 | 5.81 ± 2.73 | 1.48 ± 0.50 | 0.79 ± 0.10 | 11.50 ± 5.88 | 12.94 ± 6.57 | 6.08 ± 3.17 | 1.48 ± 0.63 | 0.75 ± 0.16 |  |  |  |  |  |  |  |  |  |  | C[C@H]1O[C@@H](O[C@@H]2CC[C@@]3(C)[C@@H](CC[C@]4(C)[C@@H]3C=C[C@]35OC[C@@]6(CCC(C)(C)C[C@H]63)[C@@H](O)C[C@]54C)[C@@]2(C)CO)[C@H](O)[C@@H](O)[C@H]1O [Prosaikogenin G] | 

The remaining lines, values behind:

SMILES | AUC0-t [1] [ng·h/mL] | AUC0-∞ [1] [ng·h/mL] | Cmax [1] [ng/mL] | t1/2 [1] [h] | tmax [1] [h] | AUC0-t [2] [ng·h/mL] | AUC0-∞ [2] [ng·h/mL] | Cmax [2] [ng/mL] | t1/2 [2] [h] | tmax [2] [h] | AUC0-t [3] [ng·h/mL] | AUC0-∞ [3] [ng·h/mL] | Cmax [3] [ng/mL] | t1/2 [3] [h] | tmax [3] [h] | AUC0-t [4] [ng·h/mL] | AUC0-∞ [4] [ng·h/mL] | Cmax [4] [ng/mL] | t1/2 [4] [h] | tmax [4] [h] | further results
CC(=O)OC[C@H]1O[C@@H](O[C@H]2[C@@H](O)[C@@H](C)O[C@@H](O[C@H]3CC[C@@]4(C)[C@@H](CC[C@]5(C)[C@@H]4C=CC46OCC7(CCC(C)(C)C[C@H]74)[C@H](O)C[C@]65C)[C@]3(C)CO)[C@@H]2O)[C@H](O)[C@@H](O)[C@@H]1O (stereo partly drawn) [Acetyl-saikosaponin D] | 23.58 ± 6.77 | 25.54 ± 7.23 | 19.20 ± 6.70 | 2.68 ± 0.71 | 0.50 ± 0.27 | 38.05 ± 21.32 | 43.25 ± 27.08 | 20.31 ± 12.42 | 4.39 ± 1.55 | 0.50 ± 0.27 |  |  |  |  |  |  |  |  |  |  | 
C[C@@]12C[C@@]3(O)O[C@@H](O1)[C@]1(CO)[C@H]3C[C@@]12O[C@@H]1O[C@H](CO)[C@@H](O)[C@H](O)[C@H]1O [Desbenzoylpaeoniflorin] |  |  |  |  |  |  |  |  |  |  | 27.39 ± 15.84 | 28.66 ± 16.13 | 10.12 ± 5.32 | 2.17 ± 0.95 | 0.58 ± 0.13 | 18.66 ± 9.99 | 20.34 ± 9.44 | 8.76 ± 4.90 | 2.72 ± 1.32 | 0.75 ± 0.16 | 
COC(=O)c1cc(O)c(O)c(O)c1 [Methyl gallate] |  |  |  |  |  |  |  |  |  |  |  |  |  |  |  |  |  |  |  |  | AUC(0-inf) [5]: 213 ± 40.5 ng·h/mL; half-life [5]: 4.77 ± 3.32 h; AUC0-t [6]: 187 ± 42.4 ng·h/mL; Cmax [7]: 57.6 ± 7.34 ng/mL; tmax [8]: 0.5 ± 0.16 h; AUC(0-inf) [9]: 144 ± 59.1 ng·h/mL; half-life [9]: 4.11 ± 2.31 h; AUC0-t [10]: 141 ± 61.3 ng·h/mL; Cmax [11]: 48.6 ± 9.47 ng/mL; tmax (male, Sprague-Dawley, rat, plasma, po, 45 g/kg, oral administration of single extract RPA, read-out: tmax): 0.58 ± 0.13 h; change of AUC0-∞ after combination (rat): significantly increased
CC1C2OC3(C)CC(=O)C1CC3(O)O2 (stereo not drawn) [Paeonimetabolin I] |  |  |  |  |  |  |  |  |  |  | 4248.67 ± 1970.10 | 4806.68 ± 2129.42 | 575.13 ± 257.81 | 7.11 ± 2.01 | 0.83 ± 0.13 | 4864.64 ± 2525.32 | 5467.27 ± 2837.33 | 658.61 ± 349.75 | 7.39 ± 0.45 | 0.75 ± 0.00 | 
O=S(=O)(O)Oc1cccc(O)c1O [Pyrogallol sulfate] |  |  |  |  |  |  |  |  |  |  | 217.62 ± 126.82 | 257.66 ± 175.61 | 24.16 ± 13.26 | 7.54 ± 3.63 | 1.75 ± 0.61 | 164.21 ± 79.60 | 187.63 ± 91.25 | 18.42 ± 5.81 | 7.72 ± 3.81 | 2.50 ± 0.78 | 

— publication PMC7982521, “Studies on the Changes of Pharmacokinetics Behaviors of Phytochemicals and the Influence on Endogenous Metabolites After the Combination of Radix Bupleuri and Radix Paeoniae Alba Based on Multi-Component Pharmacokinetics and Metabolomics” (Frontiers in Pharmacology, 2021)
